The values that follow come from patent US20220175781A1, “CD40L COMPOSITIONS AND METHODS FOR TUNABLE REGULATION” (Obsidian Therapeutics, Inc., priority 2019, published 2022).

In one data set the target is CD40 (UniProt P25942). In words: cell-based or functional assay.
The next data set deals with T cells. In words: Dose response of TMP, Bazedoxifene or Raloxifene, % CD40L positive T cells. In kind it is cell-based. The following applies: T cells expressing OT-001666. As to the method:
T cells were transduced with OT-001662 or OT-001666. On day 4, cells were treated with increasing doses of TMP for T cells expressing OT-001662. Cells expressing OT-001666 were treated either with increasing concentrations of Bazedoxifene or Raloxifene. The data are shown in Table 30 as the percentage of CD40L positive T cells.

For data set [1], the system named is T cells (CD4 and CD8 positive). Kind of data set: Bazedoxifene dose response, CD40L MFI in CD4 and CD8 positive T cells (day 4, freeze/thaw, restimulation). In kind it is cell-based. As to conditions: T cells, Bazedoxifene dose response. As to the method:
Dose response with Bazedoxifene in T cells were conducted for OT-001966, OT-001967, OT-001666. Expression of CD40L was measured at (a) day 4 after transduction, (b) after freezing and thawing the cells or (c) after freezing and thawing the cells followed by restimulation with CD3/CD28 beads. The CD40L MFI (median fluorescence intensity) within CD4 and CD8 positive subpopulations is shown in Table 34 and Table 35 respectively.

In data set [2] the test system is T cells (CD4+ and CD8+ subsets). In words: Vardenafil dose response of CD40L surface expression in T cells, CD4+ and CD8+ subsets. In kind it is cell-based. Further details: key to SR: ratio of CD40L expression with vardenafil to expression without it. As to conditions: OT-001892 transduced T cells. As to the method:
T cells were transduced with 10 μL of lentivirus corresponding to OT-001892. 4 days after transduction, cells were treated with increasing concentrations of ligand (Vardenafil) or vehicle control for 24 hours. Surface expression of CD40L in T cells as well as the CD4+ and CD8+ subsets was analyzed by FACS. The stabilization ratio (SR) may be defined as the ratio of expression, CD40L in response to vardenafil to the expression of CD40L in the absence of vardenafil.

The test system of another data set is T cells (CD4 and CD8). In words: Cleavage resistant CD40L expression and TMP regulation in T cells. The following applies: T cells, 10 μM TMP 24 hours, CD4 and CD8 populations. In kind it is cell-based. Here is the method:
T cells were transduced with OT-001668 and on day 4, the percentage of CD40L expressing T cells (within the both CD4 and CD8) subpopulations was calculated.
T cells were transduced with ecDHFR regulated construct OT-001671 that include a CD40L protein that was resistant to cleavage. On day 4 cells were treated with 10 μM TMP for 24 hours. […] In an independent experiment, T cells transduced with varying volumes of virus corresponding to OT-001671 were treated with increasing doses of TMP for 24 hours. In Table 41, 0.5 μL, 2 μL, and 10 μL indicate the different volumes of virus that were used.

Setting [3] is: All Cells, Vardenafil 0.0001 μM.
Setting [4] is: CD4+ Cells, Vardenafil 0.0001 μM.
Where [5] appears, read: CD4+ Cells, Vardenafil 0.001 μM.
Where [6] appears, read: CD8+ Cells, Vardenafil 0.0001 μM.
The mark [7] stands for this setting: CD8+ Cells, Vardenafil 0.001 μM.

CD40, sequence (P25942 21-277 limits assumed): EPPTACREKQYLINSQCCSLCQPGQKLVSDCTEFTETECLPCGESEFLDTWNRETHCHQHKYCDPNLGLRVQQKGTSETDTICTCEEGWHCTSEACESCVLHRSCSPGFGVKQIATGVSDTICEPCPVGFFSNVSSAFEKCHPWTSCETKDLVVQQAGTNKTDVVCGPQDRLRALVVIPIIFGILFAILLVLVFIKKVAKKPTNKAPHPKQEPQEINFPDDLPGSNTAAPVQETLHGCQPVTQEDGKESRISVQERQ

In the data set with CD40, “OT-001662 (Met; Linker (SG); ecDHFR (M1del, R12Y, Y100I); Histidine residue; CD40L; stop) (ligand)” displayed an IFNg (pg/ml), 2-day co-culture of transduced T cells with mDC, DMSO (DRD not stabilised) of 3790 pg/mL; an IFNg (pg/ml), 2-day co-culture of transduced T cells with mDC, TMP (0.1 µM) of 7430 pg/mL; an IFNg (pg/ml), 2-day co-culture of transduced T cells with mDC, TMP (0.5 µM) of 3590 pg/mL; an IFNg (pg/ml), 2-day co-culture of transduced T cells with mDC, TMP (2 µM) of 16400 pg/mL. In the data set with CD40, this molecule displayed an IFNg (pg/ml), 2-day co-culture of transduced T cells with mDC, TMP (10 µM) of 13500 pg/mL; an IL12 (pg/ml), 2-day co-culture of transduced T cells with mDC, DMSO (DRD not stabilised) of 0.254 pg/mL; an IL12 (pg/ml), 2-day co-culture of transduced T cells with mDC, TMP (0.1 µM) of 0.0705 pg/mL; an IL12 (pg/ml), 2-day co-culture of transduced T cells with mDC, TMP (2 µM) of 19.4 pg/mL. In the data set with CD40, the IL12 (pg/ml), 2-day co-culture of transduced T cells with mDC, TMP (10 µM) came to 59.3 pg/mL; the SEAP reporter of HEK-Blue CD40 cells co-cultured 24 hours with transduced Jurkat cells plus 50 µM TMP, given as Soluble CD40L (pg/ml) against a recombinant soluble CD40L standard was 8660 pg/mL; the TNFa (pg/ml), 2-day co-culture of transduced T cells with mDC, DMSO (DRD not stabilised) turned out to be 82.3 pg/mL; the TNFa (pg/ml), 2-day co-culture of transduced T cells with mDC, TMP (0.1 µM) came out at 131 pg/mL. Moreover, in the data set with CD40, the TNFa (pg/ml), 2-day co-culture of transduced T cells with mDC, TMP (0.5 µM) is 83.9 pg/mL; the TNFa (pg/ml), 2-day co-culture of transduced T cells with mDC, TMP (2 µM) turned out to be 249 pg/mL; the TNFa (pg/ml), 2-day co-culture of transduced T cells with mDC, TMP (10 µM) came out at 251 pg/mL.
As for `O=C(c1ccc(OCCN2CCCCC2)cc1)c1c(-c2ccc(O)cc2)sc2cc(O)ccc12` [Raloxifene], the “Percent of cells expressing CD40L” value with T cells (Dose 0.0001 μM) is on record as 4.67%; in the data set on T cells (Dose 0.001 μM), 5.01%; with T cells (Dose 0.01 μM) it was 5%; in the data set with T cells (Dose 0.1 μM), 5.18%; in the data set with T cells (Dose 1 μM), 7.1%.
The corresponding values for `Cc1c(-c2ccc(O)cc2)n(Cc2ccc(OCCN3CCCCCC3)cc2)c2ccc(O)cc12` [Bazidoxefene] are 4.88%, 5.17%, 5.42%, 7.67% and 13.5%.
On to `Cc1c(-c2ccc(O)cc2)n(Cc2ccc(OCCN3CCCCCC3)cc2)c2ccc(O)cc12` [Bazedoxifene, reference compound], for which, in data set [1], the cell health result is listed as “affected cell health at highest dose”.
Turning to `CCCc1nc(C)c2c(=O)[nH]c(-c3cc(S(=O)(=O)N4CCN(CC)CC4)ccc3OCC)nn12` [Vardenafil], the MFI in data set [2] (setting [3]) is listed as 274; in data set [2] (All Cells, Vardenafil 0.001 μM), 260; in data set [2] (All Cells, Vardenafil 0.01 μM), 265; in data set [2] (All Cells, Vardenafil 0.1 μM) it was 311; in data set [2] (All Cells, Vardenafil 1 μM), 405; in data set [2] (All Cells, Vardenafil 10 μM), 747. In addition, the MFI stood at 1168 in data set [2] (All Cells, Vardenafil 100 μM); 313 in data set [2] (setting [4]); 291 in data set [2] (setting [5]); 304 in data set [2] (CD4+ Cells, Vardenafil 0.01 μM); 359 in data set [2] (CD4+ Cells, Vardenafil 0.1 μM); 482 in data set [2] (CD4+ Cells, Vardenafil 1 μM). Also, the MFI in data set [2] (CD4+ Cells, Vardenafil 10 μM) stood at 930; in data set [2] (CD4+ Cells, Vardenafil 100 μM), 1367; in data set [2] (setting [6]) it was 166; in data set [2] (setting [7]) it was 166; in data set [2] (CD8+ Cells, Vardenafil 0.01 μM) it was 162; in data set [2] (CD8+ Cells, Vardenafil 0.1 μM) it was 171. For the same molecule, the MFI in data set [2] (CD8+ Cells, Vardenafil 1 μM) is 186; in data set [2] (CD8+ Cells, Vardenafil 10 μM), 340; in data set [2] (CD8+ Cells, Vardenafil 100 μM), 620. The SR in data set [2] (setting [3]) came to 1.31; in data set [2] (All Cells, Vardenafil 0.001 μM), 1.24; in data set [2] (All Cells, Vardenafil 0.01 μM), 1.27; in data set [2] (All Cells, Vardenafil 0.1 μM), 1.49; in data set [2] (All Cells, Vardenafil 1 μM), 1.94; in data set [2] (All Cells, Vardenafil 10 μM) it was 3.57. Moreover, the SR in data set [2] (All Cells, Vardenafil 100 μM) came to 5.59; in data set [2] (setting [4]), 1.38; in data set [2] (setting [5]), 1.28; in data set [2] (CD4+ Cells, Vardenafil 0.01 μM), 1.34; in data set [2] (CD4+ Cells, Vardenafil 0.1 μM) it was 1.58; in data set [2] (CD4+ Cells, Vardenafil 1 μM) it was 2.12. Also, the SR in data set [2] (CD4+ Cells, Vardenafil 10 μM) was determined as 4.10; in data set [2] (CD4+ Cells, Vardenafil 100 μM), 6.02; in data set [2] (setting [6]), 1.15; in data set [2] (setting [7]) it was 1.15; in data set [2] (CD8+ Cells, Vardenafil 0.01 μM) it was 1.13; in data set [2] (CD8+ Cells, Vardenafil 0.1 μM), 1.19. The SR in data set [2] (CD8+ Cells, Vardenafil 1 μM) came to 1.29; in data set [2] (CD8+ Cells, Vardenafil 10 μM), 2.36; in data set [2] (CD8+ Cells, Vardenafil 100 μM), 4.31.

B1: OT-001671: ecDHFR regulated construct that includes a CD40L protein resistant to cleavage (protein)
chain: MSGISLIAALAVDYVIGMENAMPWNLPADLAWFKRNTLNKPVIMGRHTWESIGRPLPGRKNIILSSQPGTDDRVTWVKSVDEAIAACGDVPEIMVIGGGRVIEQFLPKAQKLYLTHIDAEVEGDTHFPDYEPDDWESVFSEFHDADAQNSHSYCFEILERRHMIETYNQTSPRSAATGLPISMKIFMYLLTVFLITQMIGSALFAVYLHRRLDKIEDERNLHEDFVFMKTIQRCNTGERSLSLLNCEEIKSQFEGFVKDIMLNKEETKKENDQNPQIAAHVISEASSKTTSVLQWAEKGYYTMSNNLVTLENGKQLTVKRQGLYYIYAQVTFCSNREASSQAPFIASLCLKSPGRFERILLRAANTHSSAKPCGQQSIHLGGVFELQPGASVFVNVTDPSQVSHGTGFTSFGLLKL
For B1, the “TMP-mediated regulation of CD40L expression” value with T cells (CD4 and CD8) was “TMP-mediated Regulation of CD40L expression was observed”.
